Data reported in patent US9656962B2, “Ring-contracted morphinans and the use thereof” (Purdue Pharma L.P., priority 2013, dated 2017).

Legend:
Format in all cases: biochemical
[1] = molecular target: T1, μ-opioid receptor (Homo sapiens (Human), UniProt P35372); assay: μ-opioid receptor [35S]GTPγS functional assay, HEK-293 or CHO cells (Table 4); conditions: for Emax: relative to DAMGO; for EC50: μ GTP
Protocol: (§1) μ-Opioid Receptor Functional Assay Procedures: [^35S]GTPγS functional assays were conducted using freshly thawed μ-receptor membranes prepared in-house from a cell line expressing recombinant μ opioid receptor in a HEK-293, CHO or U-2 OS cell background, or purchased from a commercial source (Perkin Elmer, Shelton, Conn.; or DiscovRx, Fremont, Calif.). Assay reactions were prepared by sequentially adding the following reagents to binding buffer (100 mM NaCl, 10 mM MgCl2, 20 mM HEPES, pH 7.4) on ice (final concentrations indicated): membrane protein (0.026 mg/mL), saponin ([…]), GDP ([…]) and [^35S]GTPγS (0.20 nM; Perkin Elmer, Shelton, Conn.). The prepared membrane solution (190 μl/well) was transferred to 96-shallow well polypropylene plates containing 10 μl of 20× concentrated stock solutions of the agonist [D-Ala^2, N-methyl-Phe^4 Gly-ol^5]-enkephalin (DAMGO) prepared in dimethyl sulfoxide (DMSO). Plates were incubated for 30 min at about 25° C. with shaking Reactions were terminated by rapid filtration onto 96-well Unifilter GF/B filter plates (Perkin Elmer, Shelton, Conn.) using a 96-well tissue harvester (Perkin Elmer, Shelton, Conn.) followed by three filtration washes with 200 μl of ice-cold wash buffer (10 mM NaH2PO4, 10 mM Na2HPO4, pH 7.4). Filter plates were subsequently dried at 50° C. for 2-3 hours. BetaScint scintillation cocktail (Perkin Elmer, Shelton, Conn.) was added (50 μl/well) and plates were counted using a Packard Top-Count for 1 min/well. Data were analyzed using the sigmoidal dose-response curve fitting functions in GraphPad PRISM v. 3.0, or an in-house function for non-linear, sigmoidal dose-response curve-fitting. [^35S]GTPγS functional assays can also be conducted using freshly thawed μ-receptor membranes prepared from a cell line expressing recombinant μ opioid receptor in a CHO-K1 cell background.
(§2) μ GTP Emax (%) is the maximal effect elicited by a compound relative to the effect elicited by DAMGO, a standard μ agonist.
In TABLE 4, activity response of certain Compounds of the Invention to the μ- and κ-opioid receptors was determined as described above for functional assays using HEK-293 or CHO cells.

[2] = molecular target: κ-opioid receptor (Homo sapiens (Human), UniProt P41145); assay: κ-opioid receptor [35S]GTPγS functional assay, U-2 OS cells (Table 5); conditions: for Emax: relative to U69,593; for EC50: κ GTP
Protocol: κ-Opioid Receptor Functional Assay Procedures: Functional [^35S]GTPγS binding assays were conducted as follows. κ opioid receptor membrane solution was prepared by sequentially adding final concentrations of 0.026 μg/μl κ membrane protein (in-house), 10 μg/mL saponin, 3 μM GDP and 0.20 nM [^35S]GTPγS to binding buffer (100 mM NaCl, 10 mM MgCl2, 20 mM HEPES, pH 7.4) on ice. The prepared membrane solution (190 μl/well) was transferred to 96-shallow well polypropylene plates containing 10 μl of 20× concentrated stock solutions of agonist prepared in DMSO. Plates were incubated for 30 min at a temperature of about 25° C. with shaking. Reactions were terminated by rapid filtration onto 96-well Unifilter GF/B filter plates (Perkin Elmer, Shelton, Conn.) using a 96-well tissue harvester (Packard) and followed by three filtration washes with 200 μl ice-cold binding buffer (10 mM NaH2PO4, 10 mM Na2HPO4, pH 7.4). Filter plates were subsequently dried at 50° C. for 2-3 hours. Fifty μl/well scintillation cocktail (Perkin Elmer, Shelton, Conn.) was added and plates were counted in a Packard Top-Count for 1 min/well.
κ GTP Emax (%) is the maximal effect elicited by a compound relative to the effect elicited by U69,593.
The following TABLE 5 provides results on the activity response of certain Compounds of the Invention at the μ- and κ-opioid receptors determined as described above using U-2 OS cells.

[3] = molecular target: T1, μ-opioid receptor; assay: μ-opioid receptor [35S]GTPγS functional assay, U-2 OS cells (Table 5); conditions: for Emax: relative to DAMGO; for EC50: μ GTP
Protocol: as §1, §2

Compound | Emax [1] [%] | EC50 ([1]; bound given in μM) [µM] | EC50 [1] [µM] | Emax [2] [%] | EC50 [2] [nM] | Emax [3] [%] | EC50 [3] [nM]
Oc1ccc2c(c1)C13CCN(CC4CC4)[C@H](C2)[C@]1(O)C[C@H](NCc1ccccc1)C3 (stereo in doubt) [Compound 80, (2R,3aS,4R,9bS)-2-(benzylamino)-12-(cyclopropylmethyl)-2,3,4,5-tetrahydro-4,9b-(epiminoethano)-cyclopenta-[a]naphthalene-3a,8(1H)-diol] | 1 | > 20 |  |  |  |  | 
O=C(N[C@@H]1CC23CCN(CC4CC4)[C@H](Cc4ccc(O)cc42)[C@]3(O)C1)c1ccccc1 (stereo in doubt) [Compound 82, N-((2R,3aS,4R,9bS)-12-(cyclopropyl-methyl)-3a,8-dihydroxy-1,2,3,3a,4,5-hexahydro-4,9b-(epiminoethano)cyclo-penta[a]naphthalen-2-yl)benzamide] | 1 | > 20 |  |  |  |  | 
O=C(NCc1cccnc1)[C@H]1C[C@]23CCN(CC4CC4)[C@H](Cc4ccc(O)cc42)[C@]3(O)C1 [Compound 92, (2S,3aS,4R,9bS)-12-(cyclopropylmethyl)-3a,8-dihydroxy-N-(pyridin-3-ylmethyl)-1,2,3,3a,4,5-hexahydro-4,9b-(epimino-ethano)cyclopenta[a]naphthalene-2-carboxamide] | -1 | > 20 |  |  |  |  | 
O=C([C@H]1C[C@]23CCN(CC4CC4)[C@H](Cc4ccc(O)cc42)[C@]3(O)C1)N1CCS(=O)(=O)CC1 [Compound 94, ((2S,3aS,4R,9bS)-12-(cyclopropylmethyl)-3a,8-dihydroxy-1,2,3,3a,4,5-hexahydro-4,9b-(epiminoethano)cyclopenta-[a]naphthalen-2-yl)(1,1-dioxido-thiomorpholino)methanone] | 10.6 ± 3.41 | > 20 |  |  |  |  | 
O=C(NCCCN1CCOCC1)[C@@H]1C[C@]23CCN(CC4CC4)[C@H](Cc4ccc(O)cc42)[C@]3(O)C1 [Compound 85, (2R,3aS,4R,9bS)-12-(cyclopropyl-methyl)-3a,8-dihydroxy-N-(3-morpholinopropyl)-1,2,3,3a,4,5-hexahydro-4,9b-(epimino-ethano)cyclopenta[a]naphthalene-2-carboxamide] | -1 | > 20 |  |  |  |  | 
O=C(NCc1ccncc1)[C@@H]1C[C@]23CCN(CC4CC4)[C@H](Cc4ccc(O)cc42)[C@]3(O)C1 [Compound 90, (2R,3aS,4R,9bS)-12-(cyclopropylmethyl)-3a,8-dihydroxy-N-(pyridin-4-ylmethyl)-1,2,3,3a,4,5-hexahydro-4,9b-(epimino-ethano)cyclopenta[a]naphthalene-2-carboxamide] | 8.14 ± 1.3 | > 20 |  |  |  |  | 
O=C(N[C@H]1CC23CCN(CC4CC4)[C@H](Cc4ccc(O)cc42)[C@]3(O)C1)c1ccccc1 (stereo in doubt) [Compound 79, N-((2S,3aS,4R,9bS)-12-(cyclopropyl-methyl)-3a,8-dihydroxy-1,2,3,3a,4,5-hexahydro-4,9b-(epiminoethano)cyclo-penta[a]naphthalen-2-yl)benzamide] | -1 | > 20 |  |  |  |  | 
O=C([C@@H]1C[C@]23CCN(CC4CC4)[C@H](Cc4ccc(O)cc42)[C@]3(O)C1)N1CCN(c2ccccc2)CC1 [Compound 86, ((2R,3aS,4R,9bS)-12-(cyclopropylmethyl)-3a,8-dihydroxy-1,2,3,3a,4,5-hexahydro-4,9b-(epiminoethano)cyclopenta-[a]naphthalen-2-yl)(4-phenylpiperazin-1-yl)methanone] | 12.8 ± 0.63 |  | 0.0288 ± 0.0105 |  |  |  | 
O=C([C@@H]1C[C@]23CCN(CC4CC4)[C@H](Cc4ccc(O)cc42)[C@]3(O)C1)N1CCC(N2CCCC2)CC1 [Compound 88, ((2R,3aS,4R,9bS)-12-(cyclopropylmethyl)-3a,8-dihydroxy-1,2,3,3a,4,5-hexahydro-4,9b-(epiminoethano)cyclopenta-[a]naphthalen-2-yl)(4-(pyrrolidin-1-yl)piperidin-1-yl)methanone] | 0 | > 20 |  |  |  |  | 
O=C(NCc1cccnc1)[C@@H]1C[C@]23CCN(CC4CC4)[C@H](Cc4ccc(O)cc42)[C@]3(O)C1 [Compound 89, (2R,3aS,4R,9bS)-12-(cyclopropylmethyl)-3a,8-dihydroxy-N-(pyridin-3-ylmethyl)-1,2,3,3a,4,5-hexahydro-4,9b-(epimino-ethano)cyclopenta[a]naphthalene-2-carboxamide] | 4.5 | > 20 |  |  |  |  | 
O=C(NCCCN1CCOCC1)[C@H]1C[C@]23CCN(CC4CC4)[C@H](Cc4ccc(O)cc42)[C@]3(O)C1 [Compound 91, (2S,3aS,4R,9bS)-12-(cyclopropylmethyl)-3a,8-dihydroxy-N-(3-morpholinopropyl)-1,2,3,3a,4,5-hexahydro-4,9b-(epimino-ethano)cyclopenta[a]naphthalene-2-carboxamide] | -1 | > 20 |  |  |  |  | 
O=C(NCCN1CCOCC1)[C@@H]1C[C@]23CCN(CC4CC4)[C@H](Cc4ccc(O)cc42)[C@]3(O)C1 [Compound 84, (2R,3aS,4R,9bS)-12-(cyclopropyl-methyl)-3a,8-dihydroxy-N-(2-morpholinoethyl)-1,2,3,3a,4,5-hexahydro-4,9b-(epimino-ethano)cyclopenta[a]naphthalene-2-carboxamide] | 19.7 ± 1.67 |  | 0.0717 ± 0.0237 |  |  |  | 
O=C(Nc1ccccc1)N[C@@H]1CC23CCN(CC4CC4)[C@H](Cc4ccc(O)cc42)[C@]3(O)C1 (stereo in doubt) [Compound 83, 1-((2R,3aS,4R,9bS)-12-(cyclopropyl-methyl)-3a,8-dihydroxy-1,2,3,3a,4,5-hexahydro-4,9b-(epiminoethano)cyclo-penta[a]naphthalen-2-yl)-3-phenylurea] | 0 | > 20 |  |  |  |  | 
O=C([C@H]1C[C@]23CCN(CC4CC4)[C@H](Cc4ccc(O)cc42)[C@]3(O)C1)N1CCCCC1 [Compound 57, ((2S,3aS,4R,9bS)-12-(cyclopropylmethyl)-3a,8-dihydroxy-1,2,3,3a,4,5-hexahydro-4,9b-(epiminoethano)cyclopenta-[a]naphthalen-2-yl)(piperidin-1-yl)methanone] |  |  |  | 90.3 ± 2.6 | 5.88 ± 0.79 | 37.7 ± 6.69 | 2.79 ± 0.76
COc1ccc2c(c1)[C@]13CCN(CC4CC4)[C@H](C2)[C@]1(O)C[C@H](C(=O)O)C3 [Compound 14, (2R,3aS,4R,9bS)-12-(cyclopropylmethyl)-3a-hydroxy-8-methoxy-1,2,3,3a,4,5-hexahydro-4,9b-(epiminoethano)-cyclopenta[a]naphthalene-2-carboxylic acid] |  |  |  | 100 ± 2.52 | 147 ± 11.6 | 26.7 ± 2.4 | 126 ± 37.7
COc1ccc2c(c1)[C@]13CCN(CC4CC4)[C@H](C2)[C@]1(O)C[C@@H](C(=O)N1CCCC1)C3 [Compound 20, ((2S,3aS,4R,9bS)-12-(cyclopropylmethyl)-3a-hydroxy-8-methoxy-1,2,3,3a,4,5-hexahydro-4,9b-(epiminoethano)cyclo-penta[a]naphthalene-2-yl)(pyrrolidin-1-yl)methanone] |  |  |  | 87.7 ± 4.33 | 4400 ± 357 | 43.3 ± 2.4 | 1230 ± 83.5
CN(CC(=O)O)C(=O)[C@@H]1C[C@]23CCN(CC4CC4)[C@H](Cc4ccc(O)cc42)[C@]3(O)C1 [Compound 66, 2-((2R,3aS,4R,9bS)-12-(cyclopropyl-methyl)-3a,8-dihydroxy-N-methyl-1,2,3,3a,4,5-hexahydro-4,9b-(epiminoethano)cyclopenta[a]naphthalene-2-carboxamido)acetic acid] |  |  |  | 77.3 ± 0.88 | 168 ± 8.15 | 15.5 ± 1.5 | 29 ± 4.29
